Reference: patent US20250326771A1, “PIPERAZINE DERIVATIVES USEFUL IN HIV THERAPY” (VIIV HEALTHCARE COMPANY, priority 2022, published 2025)
Read-outs that look alike come from different tables or passages of the source.

Assays:
XIAP-BIR3 = XIAP-BIR3 (Homo sapiens (Human), UniProt P98170); test: BIR binding assay (FRET competition), XIAP BIR3; details: for XIAP BIR3 vs BIR2 separation window: fold separation (FS) for XIAP
Procedure, shortened: (§1)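 Each domain is run separately at its own level: 50 nM cIAP1-BIR3, 100 nM XIAP-BIR3, 325 nM for cIAP1-BIR2 or cIAP2-BIR2. Probe is a 200 nM fluorescent SMAC peptide, and the value is IC50 from FRET competition.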

cIAP2-BIR2 = cIAP2-BIR2 (Homo sapiens (Human), UniProt Q13489); test: BIR binding assay (FRET competition), cIAP2 BIR2
Chain of cIAP2-BIR2 (Q13489 158-242): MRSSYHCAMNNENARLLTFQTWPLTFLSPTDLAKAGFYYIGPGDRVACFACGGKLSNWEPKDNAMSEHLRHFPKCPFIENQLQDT
Procedure, shortened: as §1

cIAP2-BIR3 = cIAP2-BIR3 (Homo sapiens (Human), UniProt Q13489); test: BIR binding assay (FRET competition), cIAP2 BIR3; details: for cIAP2 BIR3 vs BIR2 separation window: fold separation (FS) for cIAP2
Chain of cIAP2-BIR3 (Q13489 238-349): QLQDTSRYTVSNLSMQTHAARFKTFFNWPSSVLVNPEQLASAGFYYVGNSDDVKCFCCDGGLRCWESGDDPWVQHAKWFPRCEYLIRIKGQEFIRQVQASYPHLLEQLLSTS

cIAP1-BIR3 = cIAP1-BIR3 (Homo sapiens (Human), UniProt Q13490); test: BIR binding assay (FRET competition), cIAP1 BIR3; details: for cIAP1 BIR3 vs BIR2 separation window: fold separation (FS) for cIAP1
Chain of cIAP1-BIR3 (Q13490 253-363): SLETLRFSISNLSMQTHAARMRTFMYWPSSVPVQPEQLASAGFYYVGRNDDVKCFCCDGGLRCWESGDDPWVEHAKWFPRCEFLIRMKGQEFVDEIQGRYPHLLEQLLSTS
Procedure, shortened: as §1

XIAP-BIR2 = XIAP-BIR2 (Homo sapiens (Human), UniProt P98170); test: BIR binding assay (FRET competition), XIAP BIR2
Chain of XIAP-BIR2 (P98170 124-240): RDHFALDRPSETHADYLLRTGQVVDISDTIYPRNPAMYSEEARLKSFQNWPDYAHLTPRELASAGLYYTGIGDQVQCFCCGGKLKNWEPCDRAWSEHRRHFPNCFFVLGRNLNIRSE
Procedure, shortened: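 Compounds in a 15-point, 3-fold series competed with an AlexaFluor647 SMAC peptide (AVPIAQKSE, 200 nM) for 200 nM His-tagged XIAP-BIR2 over 60 min in pH 7.4 HEPES/CHAPS/DTT buffer. Eu-W1024 (2 nM) was then added for 30 min. IC50 and pIC50 were derived from the 615 nm/665 nm emission ratio by variable-slope fit.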

cIAP1-BIR2 = cIAP1-BIR2 (Homo sapiens (Human), UniProt Q13490); test: BIR binding assay (FRET competition), cIAP1 BIR2
Chain of cIAP1-BIR2 (Q13490 173-257): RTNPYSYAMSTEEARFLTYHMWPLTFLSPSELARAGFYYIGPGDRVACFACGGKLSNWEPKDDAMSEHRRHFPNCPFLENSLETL
Procedure, shortened: as §1

[1] = system: Jurkat HIV-luciferase clones; test: Jurkat latency reversal assay; format: cell-based; details: Homo sapiens, 48 h; Jurkat latency reversal assay potency; read-out: Jurkat pEC50 (converted)
Procedure, shortened: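 Compounds are titrated 3-fold over 14 points from 10 μM in duplicate at 0.5% DMSO. Clones C16, 115 and N6, grown with 500 nM EFV, are co-incubated for 48 h at 37° C. Virally driven luciferase is read by luminescence, and EC50 and maximal percent activation versus vehicle come from a four-parameter model.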

[2] = FRET competition binding, read-out: XIAP BIR2 (pIC50) (converted)
[3] = FRET competition, read-out: XIAP BIR2 (pIC50) (converted)

Chain of XIAP-BIR3 (P98170 241-356): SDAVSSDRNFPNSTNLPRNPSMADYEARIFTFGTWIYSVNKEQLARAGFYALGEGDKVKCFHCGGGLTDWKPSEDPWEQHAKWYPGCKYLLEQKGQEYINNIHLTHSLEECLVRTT

SMILES | IC50 (XIAP-BIR3) [nM] | XIAP BIR3 vs BIR2 separation window (XIAP-BIR3) | IC50 (cIAP2-BIR2) [nM] | IC50 (cIAP2-BIR3) [nM] | cIAP2 BIR3 vs BIR2 separation window (cIAP2-BIR3) | IC50 (cIAP1-BIR3) [nM] | cIAP1 BIR3 vs BIR2 separation window (cIAP1-BIR3) | IC50 (XIAP-BIR2; [2]) [nM] | IC50 (cIAP1-BIR2) [nM] | EC50 [1] [nM] | IC50 (XIAP-BIR2) [nM] | IC50 (XIAP-BIR2; [3]) [nM]
C[C@@H]1CN(CC(=O)N2CC(C)(C)c3[nH]c(=O)c(Cc4ccc(F)cc4)cc32)[C@@H](CN2CCO[C@H](C(=O)N(C)CCCCCCN(C)C(=O)[C@@H]3CN(C[C@H]4CN[C@H](C)CN4CC(=O)N4CC(C)(C)c5[nH]c(=O)c(Cc6ccc(F)cc6)cc54)CCO3)C2)CN1 [Example 124, (2S,2'S)-N,N′-(hexane-1,6-diyl)bis(4-(((2R,5R)-1-(2-(6-(4-fluorobenzyl)-3,3-dimethyl-5-oxo-2,3,4,5-tetrahydro-1H-pyrrolo[3,2-b]pyridin-1-yl)-2-oxoethyl)-5-methylpiperazin-2-yl)methyl)-N-methylmorpholine-2-carboxamide)] | 7.94 to 15.8 | ++++ (FS>10,000) | 1000 to 3160 | 7.94 to 15.8 | +++ (10,000>FS>1,000) | 7.94 to 15.8 | +++ (10,000>FS>1,000) | 10000 to 51300 | 1000 to 3160 | 12.6 to 63.1 | – | –
C[C@@H]1CN(CC(=O)N2CC(C)(C)c3[nH]c(=O)c(Cc4ccc(F)cc4)cc32)[C@@H](CN2CCO[C@H](COc3cccc(OC[C@@H]4CN(C[C@H]5CN[C@H](C)CN5CC(=O)N5CC(C)(C)c6[nH]c(=O)c(Cc7ccc(F)cc7)cc65)CCO4)c3Cl)C2)CN1 [Example 88, 1,1′-(2,2′-((3R,3′R,6R,6′R)-(((2S,2'S)-(((2-chloro-1,3-phenylene)bis(oxy))bis(methylene))bis(morpholine-2,4-diyl))bis(methylene))bis(3-methylpiperazine-6,1-diyl))bis(acetyl))bis(6-(4-fluorobenzyl)-3,3-dimethyl-1,2,3,4-tetrahydro-5H-pyrrolo[3,2-b]pyridin-5-one)] | 7.94 to 15.8 | ++++ (FS>10,000) | 1000 to 3160 | 7.94 to 15.8 | +++ (10,000>FS>1,000) | 7.94 to 15.8 | +++ (10,000>FS>1,000) | 10000 to 51300 | 1000 to 3160 | 0.49 to 12.6 | – | –
C[C@@H]1CN(CC(=O)N2CC(C)(C)c3[nH]c(=O)c(Cc4ccc(F)cc4)cc32)[C@@H](CN2CCO[C@H](COc3ccc(F)c(OC[C@@H]4CN(C[C@H]5CN[C@H](C)CN5CC(=O)N5CC(C)(C)c6[nH]c(=O)c(Cc7ccc(F)cc7)cc65)CCO4)c3)C2)CN1 [Example 75, 1,1′-(2,2′-((3R,3′R,6R,6′R)-(((2S,2'S)-(((4-fluoro-1,3-phenylene)bis(oxy))bis(methylene))bis(morpholine-2,4-diyl))bis(methylene))bis(3-methylpiperazine-6,1-diyl))bis(acetyl))bis(6-(4-fluorobenzyl)-3,3-dimethyl-1,2,3,4-tetrahydro-5H-pyrrolo[3,2-b]pyridin-5-one)] | 1.38 to 7.94 | ++++ (FS>10,000) | 22.4 to 1000 | 1.38 to 7.94 | +++ (10,000>FS>1,000) | 1.38 to 7.94 | +++ (10,000>FS>1,000) | – | 22.4 to 1000 | 0.49 to 12.6 | 10000 to 51300 | –
Cc1c(NC(=O)[C@@H]2CN(C[C@H]3CN[C@H](C)CN3CC(=O)N3CC(C)(C)c4[nH]c(=O)c(Cc5ccc(F)cc5)cc43)CCO2)cccc1NC(=O)[C@@H]1CN(C[C@H]2CN[C@H](C)CN2CC(=O)N2CC(C)(C)c3[nH]c(=O)c(Cc4ccc(F)cc4)cc32)CCO1 [Compound 141, (2S,2′S)-N,N′-(2-methyl-1,3-phenylene)bis(4-(((2R,5R)-1-(2-(6-(4-fluorobenzyl)-3,3-dimethyl-5-oxo-2,3,4,5-tetrahydro-1H-pyrrolo[3,2-b]pyridin-1-yl)-2-oxoethyl)-5-methylpiperazin-2-yl)methyl)morpholine-2-carboxamide)] | 15.8 to 31.6 | +++ (10,000>FS>1,000) | 1000 to 3160 | 7.94 to 15.8 | +++ (10,000>FS>1,000) | 7.94 to 15.8 | +++ (10,000>FS>1,000) | – | 1000 to 3160 | 12.6 to 63.1 | – | 10000 to 51300
C[C@@H]1CN(CC(=O)N2CC(C)(C)c3[nH]c(=O)c(Cc4ccc(F)cc4)cc32)[C@@H](CN2CCO[C@H](C(=O)NCCCN3CCN(CCCNC(=O)[C@@H]4CN(C[C@H]5CN[C@H](C)CN5CC(=O)N5CC(C)(C)c6[nH]c(=O)c(Cc7ccc(F)cc7)cc65)CCO4)CC3)C2)CN1 [Example 123, (2S,2'S)-N,N′-(piperazine-1,4-diylbis(propane-3,1-diyl))bis(4-(((2R,5R)-1-(2-(6-(4-fluorobenzyl)-3,3-dimethyl-5-oxo-2,3,4,5-tetrahydro-1H-pyrrolo[3,2-b]pyridin-1-yl)-2-oxoethyl)-5-methylpiperazin-2-yl)methyl)morpholine-2-carboxamide)] | 7.94 to 15.8 | ++++ (FS>10,000) | 3160 to 10000 | 7.94 to 15.8 | +++ (10,000>FS>1,000) | 7.94 to 15.8 | +++ (10,000>FS>1,000) | 10000 to 51300 | 3160 to 10000 | 316 to 3310 | – | –
C[C@@H]1CN(CC(=O)N2CC(C)(C)c3[nH]c(=O)c(Cc4ccc(F)cc4)cc32)[C@@H](CN2CCO[C@H](C(=O)NCC(C)(C)CNC(=O)[C@@H]3CN(C[C@H]4CN[C@H](C)CN4CC(=O)N4CC(C)(C)c5[nH]c(=O)c(Cc6ccc(F)cc6)cc54)CCO3)C2)CN1 [Compound 139, (2S,2′S)-N,N′-(2,2-dimethylpropane-1,3-diyl)bis(4-(((2R,5R)-1-(2-(6-(4-fluorobenzyl)-3,3-dimethyl-5-oxo-2,3,4,5-tetrahydro-1H-pyrrolo[3,2-b]pyridin-1-yl)-2-oxoethyl)-5-methylpiperazin-2-yl)methyl)morpholine-2-carboxamide)] | 31.6 to 501 | +++ (10,000>FS>1,000) | 1000 to 3160 | 7.94 to 15.8 | +++ (10,000>FS>1,000) | 7.94 to 15.8 | +++ (10,000>FS>1,000) | – | 1000 to 3160 | 63.1 to 316 | – | 10000 to 51300
C[C@@H]1CN(CC(=O)N2CC(C)(C)c3[nH]c(=O)c(Cc4ccc(F)cc4)cc32)[C@@H](CN2CCO[C@H](C(=O)NCC3CCN(C(=O)[C@@H]4CN(C[C@H]5CN[C@H](C)CN5CC(=O)N5CC(C)(C)c6[nH]c(=O)c(Cc7ccc(F)cc7)cc65)CCO4)CC3)C2)CN1 [Compound 133, (S)-4-(((2R,5R)-1-(2-(6-(4-fluorobenzyl)-3,3-dimethyl-5-oxo-2,3,4,5-tetrahydro-1H-pyrrolo[3,2-b]pyridin-1-yl)-2-oxoethyl)-5-methylpiperazin-2-yl)methyl)-N-((1-((S)-4-(((2R,5R)-1-(2-(6-(4-fluorobenzyl)-3,3-dimethyl-5-oxo-2,3,4,5-tetrahydro-1H-pyrrolo[3,2-b]pyridin-1-yl)-2-oxoethyl)-5-methylpiperazin-2-yl)methyl)morpholine-2-carbonyl)piperidin-4-yl)methyl)morpholine-2-carboxamide] | 15.8 to 31.6 | ++++ (FS>10,000) | 3160 to 10000 | 7.94 to 15.8 | +++ (10,000>FS>1,000) | 31.6 to 501 | ++ (1,000>FS>100) | – | 1000 to 3160 | 63.1 to 316 | – | 10000 to 51300
C[C@@H]1CN(CC(=O)N2CC(C)(C)c3[nH]c(=O)c(Cc4ccc(F)cc4)cc32)[C@@H](CN2CCN(Cc3cn(CCC(=O)N4CCN(C[C@H]5CN[C@H](C)CN5CC(=O)N5CC(C)(C)c6[nH]c(=O)c(Cc7ccc(F)cc7)cc65)[C@H](C)C4)nn3)C[C@H]2C)CN1 [Compound 156] | 15.8 to 31.6 | ++++ (FS>10,000) | 1000 to 3160 | 7.94 to 15.8 | +++ (10,000>FS>1,000) | 15.8 to 31.6 | ++ (1,000>FS>100) | – | 1000 to 3160 | 63.1 to 316 | – | 10000 to 51300
